Measurements taken from patent US20260284005A1, “INHIBITING MITOGEN-ACTIVATED PROTEIN (MAP)/ERK KINASE (MEK)1 AND MEK2 AND RELATED METHODS OF TREATMENT” (priority 2023, published 2026).
Read-outs that look alike come from different tables or passages of the source.

Tests used:
[1] = test system: tumor models (cell lines); assay: Humanized 3D tumor growth assay (3D-TGA), tumor model panel / other cell lines; format: cell-based, human; details: Homo sapiens, agent alone
From the text: The humanized 3D tumor growth assay (3D-TGA) is an extracellular matrix (ECM)-based, 3D tumor model that more faithfully mimics the human tumor microenvironment (TME) with the goal of improving translational fidelity to patients. See Casneuf T, et al., “Interleukin-6 is a potential therapeutic target in interleukin-6 dependent, estrogen receptor-α-positive breast cancer,” Breast Cancer (Dove Med Press). […] MEK inhibition in the 3D-TGA. […]
All cell lines were validated by IDEXX upon receipt and assay setup. See Appendix for full cell line list.
(§1) Cells were seeded in 3D cultures in a black-walled, clear-bottom, non-tissue culture treated, 384-well plate (3000 cells per well) using a 1:1 mixture of BME and a custom media and grown in a humidified incubator with 5% CO2 and 5% O2, which approximates capillary levels for each gas, at 37° C. […] Cells were assessed for cell proliferation using EdU cell proliferation staining. […] Cells were permeabilized with 30 μL of filtered 0.5% Triton X-100 in PBS for 20 minutes at room temperature. Samples were washed twice gently with PBS. Cells were stained utilizing click-iT chemistry by adding 20 μL of staining cocktail containing 2 mM copper sulfate, 8 μM sulfo-Cy5-azide, and 20 mg/ml ascorbic acid in PBS and incubated 30-60 minutes at room temperature in dark. […] Plates were imaged with the Molecular Devices Pico ImageXpress. Images were segmented and percentage of cells with EdU incorporation was quantified to calculate antiproliferative effects of the drugs.
(§2) Five (5)-ethynyl-2′-deoxyuridine (EdU) data was represented as percentage EdU positive cells quantified by high content imaging from the Molecular Devices ImageXpress® Pico.

[2] = test system: CORL23 cells; assay: 3D-TGA; format: cell-based; details: Homo sapiens, COR-L23, CORL23, LUN, KRAS G12V, ALK R317T, agent alone
Procedure: as §1, §2

[3] = test system: NCI-H2087 cells; assay: 3D-TGA; format: cell-based; details: Homo sapiens, NCI-H2087, LUN, NRAS Q61K, ALK S553A, agent alone
Procedure: as §1, §2

[4] = test system: CL-40 cells; assay: 3D-TGA; format: cell-based, human; details: Homo sapiens, read-out: IC50 in 3D-TGA, agent alone
Procedure: as §1, §2

[5] = test system: HT-29 cells; assay: 3D-TGA; format: cell-based, human; details: Homo sapiens, HT-29, read-out: IC50 in 3D-TGA, agent alone
Procedure: as §1, §2

[6] = test system: LS1034 cells; assay: 3D-TGA; format: cell-based, human; details: Homo sapiens, LS-1034; LS1034, COL, KRAS A146T; read-out: IC50 in 3D-TGA, agent alone
Procedure: as §1, §2

[7] = test system: PANC-1 cells; assay: 3D-TGA; format: cell-based, human; details: Homo sapiens; PANC-1, PAN, KRAS G12D; read-out: IC50 in 3D-TGA, agent alone
Procedure: as §1, §2

[8] = test system: RCM-1 cells; assay: 3D-TGA; format: cell-based, human; details: Homo sapiens, RCM-1, read-out: IC50 in 3D-TGA, agent alone
Procedure: as §1, §2

[9] = test system: SNU-1197 cells; assay: 3D-TGA; format: cell-based, human; details: Homo sapiens, read-out: IC50 in 3D-TGA, agent alone
Procedure: as §1, §2

[10] = test system: SW626 cells; assay: 3D-TGA; format: cell-based, human; details: Homo sapiens, SW626, read-out: IC50 in 3D-TGA, agent alone
Procedure: as §1, §2

[11] = test system: A549 cells; assay: 3D-TGA; format: cell-based, human; details: Homo sapiens; A549, LUN, KRAS G12S; agent alone; read-out: IC50 in 3D-TGA Talazoparib
Procedure: as §1, §2

[12] = test system: NCI-H1792 cells; assay: 3D-TGA; format: cell-based, human; details: Homo sapiens, NCI-H1792, LUN, KRAS G12C
[13] = test system: HCC-44 cells; assay: 3D-TGA; format: cell-based, human; details: Homo sapiens, HCC44, read-out: IC50 in 3D-TGA, KRAS G12C inhibitor alone
Procedure: as §1, §2

[14] = test system: LU99 cells; assay: 3D-TGA; format: cell-based, human; details: Homo sapiens, Lu-99, read-out: IC50 in 3D-TGA, KRAS G12C inhibitor alone
Procedure: as §1, §2

[15] = test system: NCI-H2030 cells; assay: 3D-TGA; format: cell-based, human; details: Homo sapiens, NCI-H2030, read-out: IC50 in 3D-TGA, KRAS G12C inhibitor alone
Procedure: as §1, §2

[16] = test system: NCI-H2122 cells; assay: 3D-TGA; format: cell-based, human; details: Homo sapiens, NCI-H2122, read-out: IC50 in 3D-TGA, KRAS G12C inhibitor alone
Procedure: as §1, §2

[17] = test system: NCI-H358 cells; assay: 3D-TGA; format: cell-based, human; details: Homo sapiens; NCI-H358, LUN, KRAS G12C; read-out: IC50 in 3D-TGA, KRAS G12C inhibitor alone
[18] = test system: MIA PaCa-2 (KRAS G12C) pancreatic xenograft; assay: MIA PaCa-2 pancreatic xenograft tumor model; format: in vivo, athymic nude mice; details: MIA PaCa-2 KRAS G12C xenograft, 21 days
From the text: Gemcitabine (antimetabolite), nab-paclitaxel (taxane) and fluorouracil (5-FU; antimetabolite) were commercially purchased. All studies started with 12 animals, per group. Mice within specific groups randomized for cross-over of treatments (≥day 42). […] Additive models: MIA PaCa-2, PA-TU-8988S, CFPAC-1, HPAF-II, Panc 03.27, PSN-1, Panc 10.05, Capan-1, HPAC, PANC-1.

[19] = read-out: IC50 in 3D-TGA Brigatinib
[20] = read-out: IC50 in 3D-TGA Lorlatinib
[21] = read-out: IC50 in 3D-TGA, KRAS G12C inhibitor alone

## Nc1ncn([C@@H]2O[C@H](CO)[C@@H](O)[C@H]2O)c(=O)n1 [Azacitidine, azacitidine]
[1]; HL-60, HL-60, AML, NRAS Q61L, read-out: IC50 in 3D-TGA Azacitidine
  IC50: 1 µM
[1]; KHM-1B, MM, NRAS G12C/KRAS G12C, read-out: IC50 in 3D-TGA Azacitidine
  IC50: 0.1 to 0.5 µM
[1]; NB4, AML, KRAS Amp, read-out: IC50 in 3D-TGA Azacitidine
  IC50: 1 µM
[1]; OCI-AML-3, OCI-AML3, AML, NRAS Q61L, read-out: IC50 in 3D-TGA Azacitidine
  IC50: 1 µM
[1]; PL-21, PL-21, AML, KRAS A146V, read-out: IC50 in 3D-TGA Azacitidine
  IC50: 0.5 to 1 µM
[1]; TF-1, AML, NRAS Q61P, read-out: IC50 in 3D-TGA Azacitidine
  IC50: 1 µM
[1]; THP-1, THP-1, AML, NRAS G12D, read-out: IC50 in 3D-TGA Azacitidine
  IC50: 1 µM

## CC(C)C[C@H](NC(=O)[C@H](Cc1ccccc1)NC(=O)c1cnccn1)B(O)O [Bortezomib, bortezomib]
[1]; KHM-1B, MM, NRAS G12C/KRAS G12C, read-out: IC50 in 3D-TGA Bortezomib
  IC50: 0.5 to 1 µM
[1]; L-363, L-363, MM, NRAS Q61H, read-out: IC50 in 3D-TGA Bortezomib
  IC50: 1 µM
[1]; MM1.S, MM.1S, MM, KRAS G12A, read-out: IC50 in 3D-TGA Bortezomib
  IC50: 0.05 to 0.1 µM
[1]; RPMI-8226, RPMI-8226, MM, KRAS G12A, read-out: IC50 in 3D-TGA Bortezomib
  IC50: 0.1 to 0.5 µM

## COc1cc(N2CCC(N3CCN(C)CC3)CC2)ccc1Nc1ncc(Cl)c(Nc2ccccc2P(C)(C)=O)n1 [Brigatinib, brigatinib]
[2]; [19]
  IC50: 1 µM
[3]; [19]
  IC50: 1 µM

## COc1cccc2c1C(=O)c1c(O)c3c(c(O)c1C2=O)C[C@@](O)(C(C)=O)C[C@@H]3O[C@H]1C[C@H](N)[C@H](O)[C@H](C)O1 [Daunorubicin, daunorubicin]
[1]; HL-60, HL-60, AML, NRAS Q61L, read-out: IC50 in 3D-TGA Daunorubicin
  IC50: 0.0676 µM
[1]; NB4, AML, KRAS Amp, read-out: IC50 in 3D-TGA Daunorubicin
  IC50: 0.0632 µM
[1]; OCI-AML-3, OCI-AML3, AML, NRAS Q61L, read-out: IC50 in 3D-TGA Daunorubicin
  IC50: 0.028 µM
[1]; PL-21, PL-21, AML, KRAS A146V, read-out: IC50 in 3D-TGA Daunorubicin
  IC50: 0.0641 µM
[1]; TF-1, AML, NRAS Q61P, read-out: IC50 in 3D-TGA Daunorubicin
  IC50: 0.0562 µM
[1]; THP-1, THP-1, AML, NRAS G12D, read-out: IC50 in 3D-TGA Daunorubicin
  IC50: 0.119 µM

## Nc1ncn([C@H]2C[C@H](O)[C@@H](CO)O2)c(=O)n1 [Decitabine, decitabine]
[1]; HL-60, HL-60, AML, NRAS Q61L, read-out: IC50 in 3D-TGA Decitabine
  IC50: 1 µM
[1]; NB4, AML, KRAS Amp, read-out: IC50 in 3D-TGA Decitabine
  IC50: 1 µM
[1]; OCI-AML-3, OCI-AML3, AML, NRAS Q61L, read-out: IC50 in 3D-TGA Decitabine
  IC50: 1 µM
[1]; PL-21, PL-21, AML, KRAS A146V, read-out: IC50 in 3D-TGA Decitabine
  IC50: 1 µM
[1]; TF-1, AML, NRAS Q61P, read-out: IC50 in 3D-TGA Decitabine
  IC50: 0.05 µM
[1]; THP-1, THP-1, AML, NRAS G12D, read-out: IC50 in 3D-TGA Decitabine
  IC50: 1 µM

## C[C@H]1Oc2cc(cnc2N)-c2c(nn(C)c2C#N)CN(C)C(=O)c2ccc(F)cc21 [Lorlatinib]
[2]; [20]
  IC50: 1 µM
[3]; [20]
  IC50: 1 µM

## CC(=O)O[C@H]1C(=O)[C@@]2(C)[C@H]([C@H](OC(=O)c3ccccc3)[C@]3(O)C[C@H](OC(=O)[C@H](O)[C@@H](NC(=O)c4ccccc4)c4ccccc4)C(C)=C1C3(C)C)[C@]1(OC(C)=O)CO[C@@H]1C[C@@H]2O [Paclitaxel, paclitaxel]
[4]
  IC50: < 0.05 µM
[5]
  IC50: < 0.05 µM
[6]
  IC50: 1 µM
[7]
  IC50: 1 µM
[8]
  IC50: 0.1 to 0.5 µM
[9]
  IC50: 0.1 to 0.5 µM
[10]
  IC50: < 0.05 µM

## Cn1ncnc1[C@H]1c2n[nH]c(=O)c3cc(F)cc(c23)N[C@@H]1c1ccc(F)cc1 [Talazoparib, talazoparib]
[1]; HL-60, HL-60, AML, NRAS Q61L, read-out: IC50 in 3D-TGA Talazoparib
  IC50: > 1 µM
[1]; NCI-H1734, NCI-H1734, LUN, KRAS G13C, read-out: IC50 in 3D-TGA Talazoparib
  IC50: > 1 µM
[1]; THP-1, THP-1, AML, NRAS G12D, read-out: IC50 in 3D-TGA Talazoparib
  IC50: > 1 µM
[11]
  IC50: > 1 µM
[12]; agent alone, read-out: IC50 in 3D-TGA Talazoparib
  IC50: 0.5 to 1 µM

## C=C(F)C(=O)N1CCN(c2nc(OC[C@@H]3CCCN3C)nc3c2CCN(c2cccc4cccc(Cl)c24)C3)C[C@@H]1CC#N [adagrasib]
[13]
  IC50: > 1 µM
[14]
  IC50: > 1 µM
[15]
  IC50: < 0.05 µM
[16]
  IC50: > 1 µM
[17]
  IC50: 0.05 to 0.1 µM
[12]; [21]
  IC50: > 1 µM

## C=CC(=O)N1CCN(c2nc(=O)n(-c3c(C)ccnc3C(C)C)c3nc(-c4c(O)cccc4F)c(F)cc23)[C@@H](C)C1 [sotorasib]
[18]
  BWL: insignificant BWL
[13]
  IC50: > 1 µM
[14]
  IC50: > 1 µM
[15]
  IC50: < 0.05 µM
[16]
  IC50: > 1 µM
[17]
  IC50: 0.1 to 0.5 µM
[12]; [21]
  IC50: > 1 µM
